Data as given in patent US20100028278A1, “USE OF CHROMAN-4-ONE DERIVATIVES” (Merck Patent Gesellschaft MIT Beschrankter Haftung, priority 2007, published 2010).

Tested on: Normal human adipocytes
Assay: Assessment of lipid synthesis in adipocytes in suspension (anti-cellulitis efficacy test)
Type: cell-based
Conditions: radioactively labelled acetate (2-C14) into lipids, versus comparative sample
Procedure: Normal human adipocytes are isolated starting from biopsies (plastic surgery). Immediately after receipt, the samples are incubated for 30 min at 37° C. in the presence of collagenase (supplied by Sigma). The suspension of adipocytes is then rinsed and diluted three-fold in the culture medium, The culture medium is formed, for example, from the following: • 1.87 mg/ml of bicarbonate (supplied by Life Technologies), • 25 IU/ml/25 μg/ml of penicillin/streptomycin (supplied by Life Technologies), • 2 mM of glutamine (supplied by Life Technologies), • 100% (vol./vol.) MEM (supplied by Merck Eurolab) and • 0.5% (wt./vol.) bovine albumin (supplied by Sigma).
The adipocytes in suspension are incubated for 4 h at 37° C. in the presence of various concentrations of a compound of the formula I. […]
After incubation for 4 h, the lipids are extracted by the procedure described by Bligh and Dyer, Can. J. Biochem. Physiol., 37, 922 (1959), evaporation is carried out under nitrogen, and the introduced radioactivity is quantified by liquid scintillation (reference liquid scintillation instrument LKB 1210, supplied by Rackbeta).
Any interaction between the radioactively labelled acetate and a compound of the formula I is evaluated in order to confirm the specificity of the labelling by incubating the highest concentration of the compound of the formula I with acetate alone.

## C/C=C/C/C=C/CCC(=O)[C@H]1O[C@H]1C(N)=O [Cerulin]
  inhibition of the incorporation of acetate: 95%
